The results in this text go back to patent US20180251431A1 (VERTEX PHARMACEUTICALS INCORPORATED, priority 2016, published 2018).

Where two headings read alike, the source gives them in different places.

The test system of one data set is WT mice. Description: Reduction of blood C26:0 LPC in vivo in wild-type mice. Also noted: species or system mouse. To be noted: blood (DBS), plateau between the 2 mg/kg and 16 mg/kg doses, PO QD 28 days. The procedure:
(§1) A LC-MS/MS method of analyzing Lysophosphatidylcholine (LPC) in whole blood (dried blood spot card, DBS) and brain tissue samples was developed for measuring the abundance of saturated C16, C18, C20, C22, C24 and C26 LPC in DBS and brain samples. Whole blood was collected with Whatman DMPK-C DBS card at an approximate volume of 20 μL at each time point. Brain tissue was collected at the end point of the study. Samples were prepared and LC-MS/MS analysis was performed as described below.
For DBS bioanalysis, the DBS card was punched at 3 mm in diameter using a semi-automated DBS card puncher. To each punched spot 200 μL of pure methanol was added. The vial was vortexed at low speed for 20 minutes and centrifuged at 4000 rpm for 20 minutes. The clear supernatant was injected onto LC-MS/MS for analysis. […]
(§2) The supernatant obtained from each sample was injected into a LC-MS/MS system (Agilent Technologies, Santa Clara, Calif. and Applied Biosystems, Framingham, Mass.) for analysis. […] LPCs were detected by an AB Sciex API-6500 triple quadrupole MS with electrospray ionization in the mode of multiple reaction monitoring. Ions of Q1 were monitored at m/z of 496.6, 524.6, 552.6, 580.6, 608.6 and 636.6 for LPC 16:0, LPC 18:0, LPC 20:0, LPC 22:0, LPC 24:0 and LPC 26:0, respectively. […] C16:0 LPC levels were expressed as a concentration. […]

The next data set concerns wild-type (WT) rats. Description: Reduction of blood C26:0 LPC in vivo in wild-type rats. The arrangement: species or system rat. As to conditions: blood (DBS). The procedure: as §1
For DBS bioanalysis, the DBS card was punched at 3 mm in diameter using a semi-automated DBS card puncher. To each punched spot 200 μL of pure methanol was added. The vial was vortexed at low speed for 20 minutes and centrifuged at 4000 rpm for 20 minutes. The clear supernatant was injected onto LC-MS/MS for analysis. For brain tissue bioanalysis, brain tissue was collected in a tared homogenization tube pre-filled with metal bead and weighted. To each sample vial two parts weight of methanol was added. The sample was homogenized using Precellys-24 at 5000 rpm for 20 seconds with one cycle. A 100 mg aliquot of homogenate was used for analysis. To each sample vial 400 μL of pure methanol was added. The vial was vortexed at low speed for 20 minutes and centrifuged at 4000 rpm for 20 minutes. […]
as §2
Compound 87 was dosed PO (orally by oral gavage) QD at 30, 100, and 300 mg/kg in wild-type (WT) rats (n=5) for 7 days (FIG. 2C). […] DBS cards were stored at 4° C. until they could be analyzed for LPC. DBS samples were prepared and analyzed using LC-MS/MS as described above.

The nature of data set [1]: Blood exposure (AUC) in the 28-day oral dosing study in mice. The class given is in vivo. As to conditions: ABCD1 knockout (KO), mouse, whole blood (dried blood spots), read-out: Blood area under the concentration time-curve (AUC).

For `O=C(Nc1ccn(-c2ccnc(F)c2)n1)C1(c2ccccc2F)CC1` [Compound 87, 1-(2-fluorophenyl)-N-[1-(2-fluoro-4-pyridyl)pyrazol-3-yl]cyclopropanecarboxamide], the “reduction in C26:0 LPC levels (maximal effect plateau)” value in the data set with WT mice is recorded as approximately 65%. The “reduction in C26:0 LPC levels compared to vehicle controls” value with wild-type (WT) rats (30 mg/kg PO QD for 7 days) is recorded as approximately 65%; in the data set with wild-type (WT) rats (100 mg/kg PO QD for 7 days), “about 75%”; in the data set with wild-type (WT) rats (300 mg/kg PO QD for 7 days), “about 85%”. The AUC in data set [1] (4 mg/kg PO QD) came out at 1950 ng·h/mL; in data set [1] (8 mg/kg PO QD) it was 3490 ng·h/mL.
